Measured values: patent US12296365B2, “Peroxyformic acid compositions for membrane filtration cleaning” (ECOLAB USA INC., priority 2015, dated 2025)

Key:
[1] = RO membrane compatibility soak, overall conclusion; details: 300 ppm, simulated 1 year
[2] = RO membrane compatibility soak, clean water flux and salt rejection; details: Koch HRX; 57 ppm, simulated 3 Years, soak 234 hr, 77 F
Method: In particular, the effects of PFA on reverse osmosis members which contain a polyamide structure in comparison with known control chemicals was tested. Three different membranes were tested including Koch HRX, Hydranautics CPAS and Hydranautics ESPA2+. Membranes were soaked in duplicate, in chemistries according to Table 4.
Membranes were then conditioned in Ultrasil 110 at a pH of 11 for 90 minutes at 50° C., followed by a rinse in DI water.
Each of the chemistries, with the exception of PFA was refreshed daily. PFA was refreshed hourly. After the simulated exposure the membranes are rinsed with DI water and placed on the Flat Sheet Membrane skid (Model M20). The membranes were rinsed with DI water for 24 hours at standard UF pressure and temperature. Once 24 hours was completed the membranes were subjected to alkaline conditioning step until solution pH is 11. 15.14 grams of NaCl was added to the recirculating water (2000 ppm NaCl) and the system was allowed to continue circulating. The conductivity of each permeate tube and feed was then measured and recorded and shown as percent rejection. The percent rejection was determined by (conductivity of the feed−conductivity of the permeate)/(conductivity of the feed).

| SMILES | flux and salt rejection results versus control (in words) [1] | Water Flux (LMH) Peracetic acid [2] |
| --- | --- | --- |
| O=COO [PFA, peroxyformic acid] | comparable results to that of the commercially-available control peroxyacetic acid compositions at 3 years |  |
| CC(=O)OO [Peracetic acid] |  | 75.22 LMH |
